Experiment [1] is described as follows: A375 melanoma cell cytotoxicity, dose response, counter-screen for MITF inhibitor project, CellTiter-Glo luminescence, dry powder, set 2 (AID 624489).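 Note: actives are compounds lowering A375 viability meaning general cytotoxicity.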 It counts as functional, cell-based. The settings on record: A-375.
A short description of experiment [2]: MALME3 melanoma cell viability reduction, dose response, orthogonal assay for MITF inhibitor project, CellTiter-Glo luminescence, dry powder, set 5 (AID 651584). Conditions: MALME-3. It counts as functional, cell-based.
Experiment [3] has as its target Dual specificity protein phosphatase 3 (Homo sapiens, UniProt P51452). Put plainly: VHR1 phosphatase inhibitors, primary screen, biochemical, absorbance, uHTS (AID 1654).
In experiment [4] the test system is Streptococcus sp. 'group A'. Kind of experiment: growth inhibition of control SK(-) GAS strain, dose response, counter-screen for streptokinase expression inhibitor project, luminescence, kanamycin, BacTiterGlo, confirmation (AID 1900). It is filed as functional, organism-based.
In experiment [5] the target is T1, Apoptotic protease-activating factor 1 (Homo sapiens, UniProt O14727).
T1 sequence (O14727 whole entry): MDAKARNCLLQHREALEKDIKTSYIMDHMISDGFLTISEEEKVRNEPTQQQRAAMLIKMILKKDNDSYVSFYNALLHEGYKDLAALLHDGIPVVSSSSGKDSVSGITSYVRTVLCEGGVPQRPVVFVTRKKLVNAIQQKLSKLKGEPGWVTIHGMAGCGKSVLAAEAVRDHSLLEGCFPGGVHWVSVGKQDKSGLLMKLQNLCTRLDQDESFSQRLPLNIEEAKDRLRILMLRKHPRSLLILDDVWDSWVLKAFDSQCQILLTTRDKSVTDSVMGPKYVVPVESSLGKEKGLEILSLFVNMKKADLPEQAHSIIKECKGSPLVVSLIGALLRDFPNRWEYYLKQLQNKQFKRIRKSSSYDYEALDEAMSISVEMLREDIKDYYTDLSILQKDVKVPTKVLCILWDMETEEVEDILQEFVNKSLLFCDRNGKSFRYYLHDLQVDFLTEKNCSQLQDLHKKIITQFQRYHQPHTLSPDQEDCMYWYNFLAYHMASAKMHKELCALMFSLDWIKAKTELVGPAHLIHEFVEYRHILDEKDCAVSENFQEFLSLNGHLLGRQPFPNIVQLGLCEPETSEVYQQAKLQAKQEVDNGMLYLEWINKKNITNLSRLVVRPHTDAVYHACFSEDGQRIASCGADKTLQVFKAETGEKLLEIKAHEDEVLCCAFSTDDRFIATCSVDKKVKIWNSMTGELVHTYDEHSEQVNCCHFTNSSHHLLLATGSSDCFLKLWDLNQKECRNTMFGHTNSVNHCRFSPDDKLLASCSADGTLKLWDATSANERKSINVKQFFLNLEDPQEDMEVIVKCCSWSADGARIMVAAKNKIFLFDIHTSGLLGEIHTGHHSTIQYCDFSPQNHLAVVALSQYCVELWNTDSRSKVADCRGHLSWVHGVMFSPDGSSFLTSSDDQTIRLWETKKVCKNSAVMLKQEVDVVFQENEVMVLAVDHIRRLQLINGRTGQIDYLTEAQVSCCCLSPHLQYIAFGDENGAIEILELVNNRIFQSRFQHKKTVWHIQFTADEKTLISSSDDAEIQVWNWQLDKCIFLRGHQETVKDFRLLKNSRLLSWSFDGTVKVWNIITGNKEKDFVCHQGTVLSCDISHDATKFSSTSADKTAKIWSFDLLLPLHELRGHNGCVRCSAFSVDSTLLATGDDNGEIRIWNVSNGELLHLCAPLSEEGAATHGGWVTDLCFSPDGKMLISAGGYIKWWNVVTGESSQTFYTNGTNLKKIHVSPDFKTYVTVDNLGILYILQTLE
It is filed as functional.

Experiment [6] deals with Vascular endothelial growth factor receptor 2 (Homo sapiens, UniProt P35968). It counts as functional.
Vascular endothelial growth factor receptor 2, sequence (P35968 whole entry): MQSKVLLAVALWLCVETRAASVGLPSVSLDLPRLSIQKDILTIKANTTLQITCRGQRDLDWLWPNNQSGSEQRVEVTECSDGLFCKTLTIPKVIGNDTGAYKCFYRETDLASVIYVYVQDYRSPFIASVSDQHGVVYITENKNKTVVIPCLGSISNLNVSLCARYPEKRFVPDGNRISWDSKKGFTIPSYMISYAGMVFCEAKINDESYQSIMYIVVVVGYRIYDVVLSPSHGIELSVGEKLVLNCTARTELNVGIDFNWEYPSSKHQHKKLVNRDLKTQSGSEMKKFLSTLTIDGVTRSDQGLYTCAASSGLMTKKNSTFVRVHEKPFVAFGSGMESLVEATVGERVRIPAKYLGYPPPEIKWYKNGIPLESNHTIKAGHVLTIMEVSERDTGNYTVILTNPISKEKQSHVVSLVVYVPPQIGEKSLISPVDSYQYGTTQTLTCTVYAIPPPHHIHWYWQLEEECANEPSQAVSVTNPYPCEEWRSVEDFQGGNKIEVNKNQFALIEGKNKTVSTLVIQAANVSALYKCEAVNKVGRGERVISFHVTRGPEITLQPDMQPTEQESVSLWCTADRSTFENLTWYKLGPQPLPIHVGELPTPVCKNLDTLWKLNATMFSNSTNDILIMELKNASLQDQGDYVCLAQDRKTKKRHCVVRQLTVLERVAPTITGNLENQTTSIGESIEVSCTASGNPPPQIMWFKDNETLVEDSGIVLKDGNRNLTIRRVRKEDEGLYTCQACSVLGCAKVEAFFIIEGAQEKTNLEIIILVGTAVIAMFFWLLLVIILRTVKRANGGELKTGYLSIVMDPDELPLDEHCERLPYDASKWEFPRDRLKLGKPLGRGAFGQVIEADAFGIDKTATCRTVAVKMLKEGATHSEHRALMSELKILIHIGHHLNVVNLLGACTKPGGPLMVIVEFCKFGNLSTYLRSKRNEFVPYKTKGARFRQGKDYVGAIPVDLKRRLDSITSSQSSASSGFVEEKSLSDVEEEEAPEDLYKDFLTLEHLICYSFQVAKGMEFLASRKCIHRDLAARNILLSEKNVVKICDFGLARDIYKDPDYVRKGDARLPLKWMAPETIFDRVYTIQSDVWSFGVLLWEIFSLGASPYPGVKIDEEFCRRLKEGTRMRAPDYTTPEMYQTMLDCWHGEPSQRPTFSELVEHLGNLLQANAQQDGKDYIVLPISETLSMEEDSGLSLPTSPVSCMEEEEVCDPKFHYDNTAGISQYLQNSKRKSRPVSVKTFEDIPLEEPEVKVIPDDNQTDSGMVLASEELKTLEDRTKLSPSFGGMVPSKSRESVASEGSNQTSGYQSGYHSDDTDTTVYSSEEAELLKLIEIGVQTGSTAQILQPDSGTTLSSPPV
Experiment [7] addresses Testis-specific serine/threonine-protein kinase 2 (Homo sapiens, UniProt Q96PF2). It is filed as functional.
Experiment [8] concerns the target Dual specificity tyrosine-phosphorylation-regulated kinase 3 (Homo sapiens, UniProt O43781). It counts as functional.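 Note: measured as one member of a broad kinase panel.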
In a further experiment the target is Insulin receptor (Homo sapiens, UniProt P06213). It counts as functional.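 Note: insulin receptor kinase tested as one member of a kinome-wide kinase panel.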
The target in experiment [9] is Mitogen-activated protein kinase 12 (Homo sapiens, UniProt P53778). It counts as functional.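 Note: measured as one member of a kinome-wide kinase profiling panel.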
For experiment [10], the target named is Serine/threonine-protein kinase BRSK1 (Homo sapiens, UniProt Q8TDC3). It counts as functional.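 Note: measured within a kinome-wide kinase panel, with the target listed as KIAA1811.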
For experiment [11], the target named is Serine/threonine-protein kinase TBK1 (Homo sapiens, UniProt Q9UHD2). Put plainly: Navigating the Kinome. Panel member name: TBK1. It is filed as functional.
The target of experiment [12] is Casein kinase II subunit alpha (Homo sapiens, UniProt P68400). It counts as functional.
Experiment [13] has as its target Vascular endothelial growth factor receptor 3 (Homo sapiens, UniProt P35916). It is filed as functional.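 Note: value from a kinome-wide profiling panel, with FLT4 as the panel member.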
The target in experiment [14] is Casein kinase I isoform gamma-1 (Homo sapiens, UniProt Q9HCP0). It is filed as functional.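 Note: measured as the CSNK1G1 member of a kinome profiling panel.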
Experiment [15] has as its target Vascular endothelial growth factor receptor 1 (Homo sapiens, UniProt P17948). It is filed as functional.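 Note: measured within a kinome-wide profiling panel, FLT1 as the panel member.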
For experiment [16], the target named is Mitogen-activated protein kinase kinase kinase kinase 2 (Homo sapiens, UniProt Q12851). It counts as functional.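 Note: measured as one member of a kinome-wide kinase panel, with MAP4K2 as the panel entry.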
The target in experiment [17] is MAP kinase-interacting serine/threonine-protein kinase 2 (Homo sapiens, UniProt Q9HBH9). It is filed as functional.
Experiment [18] deals with Fibroblast growth factor receptor 3 (Homo sapiens, UniProt P22607). It counts as functional.
The target in experiment [19] is Tyrosine-protein kinase Lck (Homo sapiens, UniProt P06239). It is filed as functional.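 Note: lck was assayed as one member of a kinase panel.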
Experiment [20] concerns the target Non-receptor tyrosine-protein kinase TYK2 (Homo sapiens, UniProt P29597). It is filed as functional.
For experiment [21], the target named is Receptor-type tyrosine-protein kinase FLT3 (Homo sapiens, UniProt P36888). It counts as functional.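 Note: FLT3 was tested as one member of a kinome-wide kinase panel.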
A further experiment has as its target Aurora kinase B (Homo sapiens, UniProt Q96GD4). It counts as functional.
Experiment [22] addresses Macrophage-stimulating protein receptor (Homo sapiens, UniProt Q04912). Kind of experiment: Navigating the Kinome. Panel member name: MST1R. It counts as functional.
Experiment [23] concerns the target Homeodomain-interacting protein kinase 2 (Homo sapiens, UniProt Q9H2X6). It is filed as functional.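 Note: measured within a kinome-wide kinase profiling panel, HIPK2 being one panel member.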
For experiment [24], the target named is Macrophage colony-stimulating factor 1 receptor (Homo sapiens, UniProt P07333). It is filed as functional.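 Note: value comes from the Navigating the Kinome screening panel, CSF1R member.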
Experiment [25] deals with Serine/threonine-protein kinase PLK4 (Homo sapiens, UniProt O00444). It is filed as functional.
In experiment [26] the target is Leukocyte tyrosine kinase receptor (Homo sapiens, UniProt P29376). Kind of experiment: Navigating the Kinome. Panel member name: LTK. It counts as functional.

Activity calls are given as the source filed them.

Aurora kinase B, sequence (Q96GD4 whole entry): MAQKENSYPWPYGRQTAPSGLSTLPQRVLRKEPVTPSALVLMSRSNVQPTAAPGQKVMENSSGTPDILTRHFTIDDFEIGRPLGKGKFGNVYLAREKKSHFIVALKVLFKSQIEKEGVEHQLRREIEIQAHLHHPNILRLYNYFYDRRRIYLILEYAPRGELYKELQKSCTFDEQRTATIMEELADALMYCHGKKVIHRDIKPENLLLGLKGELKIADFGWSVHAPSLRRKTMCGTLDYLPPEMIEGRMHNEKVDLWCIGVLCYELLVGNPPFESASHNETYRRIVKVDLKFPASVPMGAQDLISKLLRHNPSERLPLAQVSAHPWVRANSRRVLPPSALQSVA
Vascular endothelial growth factor receptor 3, sequence (P35916 whole entry, canonical isoform): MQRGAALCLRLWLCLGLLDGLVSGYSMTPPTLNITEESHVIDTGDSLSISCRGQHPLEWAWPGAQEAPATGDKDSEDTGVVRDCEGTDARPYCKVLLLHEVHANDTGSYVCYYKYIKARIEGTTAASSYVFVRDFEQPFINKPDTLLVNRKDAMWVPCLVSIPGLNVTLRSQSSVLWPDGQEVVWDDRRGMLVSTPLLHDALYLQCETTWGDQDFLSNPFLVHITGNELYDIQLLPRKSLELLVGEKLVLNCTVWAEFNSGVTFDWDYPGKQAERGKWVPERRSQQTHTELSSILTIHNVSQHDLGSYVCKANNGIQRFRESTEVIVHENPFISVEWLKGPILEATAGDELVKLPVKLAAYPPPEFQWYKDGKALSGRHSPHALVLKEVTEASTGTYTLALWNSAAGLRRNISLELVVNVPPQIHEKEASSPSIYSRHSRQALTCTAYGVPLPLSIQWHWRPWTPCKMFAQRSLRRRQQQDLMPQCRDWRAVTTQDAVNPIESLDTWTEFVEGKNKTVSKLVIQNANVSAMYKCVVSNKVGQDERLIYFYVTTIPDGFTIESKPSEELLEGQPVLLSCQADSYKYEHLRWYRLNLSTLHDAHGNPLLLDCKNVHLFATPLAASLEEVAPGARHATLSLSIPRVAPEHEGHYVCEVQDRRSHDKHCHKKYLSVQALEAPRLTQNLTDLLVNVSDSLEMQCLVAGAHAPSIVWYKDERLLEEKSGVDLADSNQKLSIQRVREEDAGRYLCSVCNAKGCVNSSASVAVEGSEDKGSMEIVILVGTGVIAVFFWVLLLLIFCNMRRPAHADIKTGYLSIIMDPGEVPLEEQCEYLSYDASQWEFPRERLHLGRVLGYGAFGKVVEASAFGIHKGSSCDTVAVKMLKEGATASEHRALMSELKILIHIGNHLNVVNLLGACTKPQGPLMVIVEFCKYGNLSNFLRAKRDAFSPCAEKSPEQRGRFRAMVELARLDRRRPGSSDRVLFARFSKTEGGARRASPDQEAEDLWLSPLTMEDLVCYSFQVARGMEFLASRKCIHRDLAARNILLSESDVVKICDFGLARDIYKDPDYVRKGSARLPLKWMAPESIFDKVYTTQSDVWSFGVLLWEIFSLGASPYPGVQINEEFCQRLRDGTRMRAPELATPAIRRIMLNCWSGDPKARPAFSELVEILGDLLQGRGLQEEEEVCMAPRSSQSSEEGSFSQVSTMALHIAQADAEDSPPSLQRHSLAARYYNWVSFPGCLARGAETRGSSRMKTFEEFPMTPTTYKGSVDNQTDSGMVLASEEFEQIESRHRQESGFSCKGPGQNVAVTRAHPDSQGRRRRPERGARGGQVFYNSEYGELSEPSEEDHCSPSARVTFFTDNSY
Vascular endothelial growth factor receptor 1, sequence (P17948 whole entry): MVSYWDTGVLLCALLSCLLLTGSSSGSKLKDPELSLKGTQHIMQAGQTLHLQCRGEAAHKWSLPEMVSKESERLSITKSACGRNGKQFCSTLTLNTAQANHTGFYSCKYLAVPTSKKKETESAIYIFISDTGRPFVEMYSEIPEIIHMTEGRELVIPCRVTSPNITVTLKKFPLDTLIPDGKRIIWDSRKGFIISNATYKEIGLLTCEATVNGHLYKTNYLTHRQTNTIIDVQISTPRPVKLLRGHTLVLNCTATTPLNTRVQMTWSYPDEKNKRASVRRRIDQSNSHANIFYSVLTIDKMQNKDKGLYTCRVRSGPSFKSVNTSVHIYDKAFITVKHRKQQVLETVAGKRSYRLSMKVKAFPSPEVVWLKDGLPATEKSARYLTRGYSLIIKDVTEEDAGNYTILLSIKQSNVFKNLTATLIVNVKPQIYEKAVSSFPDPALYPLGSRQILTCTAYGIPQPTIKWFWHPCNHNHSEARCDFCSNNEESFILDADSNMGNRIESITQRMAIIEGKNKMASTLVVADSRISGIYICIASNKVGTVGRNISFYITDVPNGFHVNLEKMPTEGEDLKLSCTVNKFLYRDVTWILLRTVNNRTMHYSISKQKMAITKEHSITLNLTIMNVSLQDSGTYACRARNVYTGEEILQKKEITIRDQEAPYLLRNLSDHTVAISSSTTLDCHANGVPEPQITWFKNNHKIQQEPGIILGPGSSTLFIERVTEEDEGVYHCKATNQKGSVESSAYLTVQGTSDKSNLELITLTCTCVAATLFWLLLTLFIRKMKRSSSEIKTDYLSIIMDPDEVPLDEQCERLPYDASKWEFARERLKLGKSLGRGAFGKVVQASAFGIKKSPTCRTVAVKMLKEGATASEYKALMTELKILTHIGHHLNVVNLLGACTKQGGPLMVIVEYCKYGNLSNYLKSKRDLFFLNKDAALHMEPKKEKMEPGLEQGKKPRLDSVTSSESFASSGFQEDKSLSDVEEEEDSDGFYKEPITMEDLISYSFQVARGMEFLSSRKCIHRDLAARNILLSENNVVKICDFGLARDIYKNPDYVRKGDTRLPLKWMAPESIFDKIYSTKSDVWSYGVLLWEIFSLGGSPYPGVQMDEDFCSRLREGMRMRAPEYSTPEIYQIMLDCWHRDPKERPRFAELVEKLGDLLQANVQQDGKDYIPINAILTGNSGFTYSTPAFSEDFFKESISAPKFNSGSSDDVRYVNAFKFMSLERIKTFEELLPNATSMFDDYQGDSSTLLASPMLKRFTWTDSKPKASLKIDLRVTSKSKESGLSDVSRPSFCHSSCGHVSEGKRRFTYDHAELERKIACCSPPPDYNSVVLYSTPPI
Testis-specific serine/threonine-protein kinase 2, sequence (Q96PF2 whole entry): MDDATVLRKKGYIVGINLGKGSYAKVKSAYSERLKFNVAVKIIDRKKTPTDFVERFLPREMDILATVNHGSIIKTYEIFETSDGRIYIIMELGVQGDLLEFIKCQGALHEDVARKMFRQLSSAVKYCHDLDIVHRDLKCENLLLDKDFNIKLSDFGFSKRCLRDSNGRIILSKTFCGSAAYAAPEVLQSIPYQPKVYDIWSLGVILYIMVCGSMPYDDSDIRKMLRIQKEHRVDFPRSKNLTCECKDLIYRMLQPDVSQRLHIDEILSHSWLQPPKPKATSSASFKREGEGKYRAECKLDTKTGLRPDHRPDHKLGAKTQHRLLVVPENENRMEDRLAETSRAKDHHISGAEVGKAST
Dual specificity protein phosphatase 3, sequence (P51452 whole entry): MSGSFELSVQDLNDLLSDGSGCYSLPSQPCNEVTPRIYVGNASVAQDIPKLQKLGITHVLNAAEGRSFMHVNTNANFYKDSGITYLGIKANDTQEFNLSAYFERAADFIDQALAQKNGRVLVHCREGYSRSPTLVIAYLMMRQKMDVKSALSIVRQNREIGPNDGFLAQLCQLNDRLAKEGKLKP

On to `C=CCNC1=C(Cl)C(=O)c2ccccc2C1=O`, for which the figures for the AC50 in experiment [1] and in [2] were > 70000 nM (inactive) and 9990 nM (active), respectively.

Regarding `CS(=O)(=O)c1ccc2c(c1)SC1=NC(=O)/C(=C/c3ccc(O)c(O)c3)C(=N)N12`, the IC50 in experiment [3] is 10400 nM (active).

In the case of `CCOC(=O)C(C(=O)OCC)c1cc(Br)c2noc3c2c1C(=O)c1ccccc1-3`, the EC50 in experiment [4] is 2900 nM (active). For the same compound, in experiment [5], the IC50 is 47700 nM (active).

In the case of `COc1ccc(C(=O)Nc2n[nH]c3ccc(-c4cn(Cc5ccccc5)nn4)cc23)cc1OC`, the Ki was 398 nM (active) in experiment [6]; 79.4 nM (active) in [7]; 631 nM (active) in experiment [8]; 1260 nM (active) on Insulin receptor; 631 nM (active) in [9]; 1260 nM (active) in experiment [10]. The Ki is 25.1 nM (active) in experiment [11]; 15.8 nM (active) in [12]; 200 nM (active) in experiment [13]; 25.1 nM (active) in experiment [14]; 200 nM (active) in [15]; 398 nM (active) in experiment [16]. The Ki in [17] is 3160 nM (active); in experiment [18], 158 nM (active); in experiment [19], 2510 nM (active); in experiment [20] it was 20 nM (active); in experiment [21] it was > 1260 nM (inactive); at Aurora kinase B, 200 nM (active). In addition, the inhibitory constant (Ki) in [22] is 794 nM (active); in experiment [23], 25.1 nM (active); in [24], > 1580 nM (inactive); in experiment [25], 79.4 nM (active); in experiment [26], > 2510 nM (inactive).

Source of the values: ChEMBL document CHEMBL1201862, “PubChem BioAssay data set” (2004).
